In test [1] the test system is Salmonella typhimurium. Kind of test: Antibacterial activity against wild type Salmonella typhimurium SL1344 assessed as reduction in bacterial growth by Muller hinton broth based microdilution assay. Type of test: functional, Salmonella enterica subsp. enterica serovar Typhimurium. The note with it: Salmonella enterica. (Dilution methods test growth across graded concentrations, often in twofold steps.)

Test [2] relates to Salmonella typhimurium. The experiment in a line: Antibacterial activity against wild type Salmonella typhimurium SL1344 assessed as reduction in bacterial growth by ALM based microdilution assay. It is filed as functional, Salmonella enterica subsp. enterica serovar Typhimurium. Particulars: Salmonella enterica.
Test [3] has as its system Salmonella typhimurium. Kind of test: Antibacterial activity against Salmonella typhimurium harboring delta tolC mutant assessed as bacterial growth inhibition by Muller hinton broth based microdilution assay. It is filed as functional, Salmonella enterica subsp. enterica serovar Typhimurium. Particulars: Salmonella enterica.
The subject of test [4] is Escherichia coli. Kind of test: Antibacterial activity against wild type Escherichia coli MG1655 assessed as inhibition of bacterial growth by Muller hinton broth based microdilution assay. It is filed as functional.
For test [5], the system named is Escherichia coli. The experiment in a line: Antibacterial activity against wild type Escherichia coli MG1655 assessed as inhibition of bacterial growth by MOPS based broth microdilution assay. Type of test: functional.
Test [6] relates to Escherichia coli. Kind of test: Antibacterial activity against wild type Escherichia coli MG1655 harboring delta tolC mutant assessed as inhibition of bacterial growth by Muller hinton broth based microdilution assay. Type of test: functional.
Test [7] deals with Escherichia coli. The experiment in a line: Antibacterial activity against wild type Escherichia coli MG1655 harboring delta tolC mutant assessed as inhibition of bacterial growth by MOPS based broth microdilution assay. It is filed as functional.
The next test relates to Staphylococcus aureus. The experiment in a line: Antibacterial activity against Methicillin-resistant Staphylococcus aureus USA300 assessed as inhibition of bacterial growth by Muller hinton broth based microdilution assay. It is filed as functional.
A further test has as its system Bacillus subtilis. The experiment in a line: Antibacterial activity against Bacillus subtilis 168 assessed as inhibition of bacterial growth by Muller hinton broth based microdilution assay. It is filed as functional.

Converted amounts (≈) assume the structure as drawn.

The MIC is the lowest concentration found to suppress growth. On to `CN1C=C2C[C@@H]3[C@H](C[C@@H](CNC(=O)C4CC4c4ccccc4)CN3C)C3C=CC=C1C23` (some centres not stated), for which the MIC in the test with Salmonella typhimurium [1] is over 200 µg/mL; with Salmonella typhimurium [2], 200 µg/mL (≈ 481 µM); with Salmonella typhimurium [3] it was 64 µg/mL (≈ 154 µM); in the test on Escherichia coli [4] it was over 200 µg/mL; in the test with Escherichia coli [5], over 200 µg/mL; with Escherichia coli [6] it was 64 µg/mL (≈ 154 µM). The MIC in the test on Escherichia coli [7] is 10.2 µg/mL (≈ 24.6 µM); with Staphylococcus aureus it was 64 µg/mL (≈ 154 µM); with Bacillus subtilis, 64 µg/mL (≈ 154 µM).
As to `CN(C)CCCNC(=O)/C=C/c1ccc(C(F)(F)F)cc1`, the MIC was over 200 µg/mL in the test with Salmonella typhimurium [1]; over 200 µg/mL in the test with Salmonella typhimurium [2]; over 200 µg/mL in the test with Salmonella typhimurium [3]; over 200 µg/mL in the test on Escherichia coli [4]; over 200 µg/mL in the test with Escherichia coli [5]; 128 µg/mL (≈ 426 µM) in the test on Escherichia coli [7]. In addition, the MIC in the test with Staphylococcus aureus and in the test with Bacillus subtilis was over 200 µg/mL each time.

The values above are taken from ChEMBL document CHEMBL5154746, “Antibacterial Activity of Metergoline Analogues: Revisiting the Ergot Alkaloid Scaffold for Antibiotic Discovery” (2022).
